Experimental data as given in US9068081B2, “Thiophene azo dyes and laundry care compositions containing the same” (MILLIKEN & COMPANY, priority 2010, dated 2015).

experiment: Aqueous partition value of a dye (water/1-octanol partitioning); assay type: physicochemical; conditions: deionized water / 1-octanol 10.0 mL each, absorbance at dye λmax, (Af/Ai)×100%
Protocol: Dissolve in deionized water to a final volume of 10.0 mL an amount of dye sufficient to provide a solution absorbance value between 0.25 and 1.0, said absorbance being determined at the dye λmax between 400 nm and 750 nm, using a cuvette with 1.0 cm path length. Measure the absorbance of the sample at the dye λmax in a UV/Vis spectrophotometer, then transfer the entire 10.0 mL solution to a 50.0 mL plastic centrifuge tube. Add 10.0 mL of 1-octanol, cap the tube, and mix vigorously for 30 seconds using a Vortex™ mixer. Leave the tube standing undisturbed until the layers cleanly phase separate.
Using a transfer pipette, withdraw an aliquot of the aqueous (bottom) layer and transfer it to a cuvette with 1.0 cm path length for spectrophotometric analysis. Analyze the solution as before, and quantify the absorbance loss at λmax as “% of Dye Remaining in Aqueous Layer” as detailed below: % of Dye Remaining in Aqueous Layer=Aqueous Partition Value (APV)=(Af/Ai)×100% wherein Ai is the initial solution absorbance at λmax and Af is the final solution absorbance at λmax. II. Method for Determining Hueing Efficiency for Detergents • a.) Two 25 cm×25 cm fabric swatches of 16 oz white cotton interlock knit fabric (270 g/square meter, brightened with Uvitex BNB fluorescent whitening agent, from Test Fabrics. P.O. Box 26, Weston, Pa., 18643) are obtained. • b.) Prepare two one liter aliquots of tap water containing 1.55 g of AATCC standard heavy duty liquid (HDL) test detergent. • c.) Add a sufficient amount the dye to be tested to one of the aliquots from Step b.) above to produce an aqueous solution absorbance of 1 AU. • d.) Wash one swatch from a.) above in one of the aliquots of water containing 1.55 g of AATCC standard heavy duty liquid (HDL) test detergent and wash the other swatch in the other aliquot. Such washing step should be conducted for 30 minutes at room temperature with agitation. After such washing step separately rinse the swatches in tap water and air dry the swatches in the dark. • e.) After rinsing and drying each swatch, the hueing efficiency, DE*eff, of the dye is assessed by determining the L*, a*, and b* value measurements of each swatch using a Hunter LabScan XE reflectance spectrophotometer with D65 illumination, 10° observer and UV filter excluded. The hueing efficiency of the dye is then calculated using the following equation: DE*eff=((L*c−Ls)^2+(a*c−a*s)^2+(b*c−b*s)^2)^1/2 • wherein the subscripts c and s respectively refer to the L*, a*, and b* values measured for the control, i.e., the fabric sample washed in detergent with no dye, and the fabric sample washed in detergent containing the dye to be screened. III. Method for Determining Wash Removability • a.) Prepare two separate 150 ml aliquots of HDL detergent solution, according to AATCC Test Method 61-2003, Test 2A and containing 1.55 g/liter of the AATCC HDL formula in distilled water. • b.) A 15 cm×5 cm sample of each fabric swatch from the Method for Determining of Hueing Efficiency For Detergents described above is washed in a Launderometer for 45 minutes at 49° C. in 150 ml of a the HDL detergent solution prepared according to Step 11. a.) above. • c.) The samples are rinsed with separate aliquots of rinse water and air dried in the dark, and then L*, a*, and b* value measurements of each swatch are taken using a Hunter LabScan XE reflectance spectrophotometer with D65 illumination, 10° observer and UV filter excluded. The amount of residual coloration is assessed by measuring the DE*res, calculated using the following equation: DE*res=((L*c−L*s)^2+(a*c−a*s)^2+(b*c−b*s)^2)^1/2 • wherein the subscripts c and s respectively refer to the L*, a*, and b* values measured for the control, i.e., the fabric sample initially washed in detergent with no dye, and the fabric sample initially washed in detergent containing the dye to be screened. The wash removal value for the dye is then calculated according to the formula: % removal=100×(1−DE*res/DE*eff) C. Test Results […]

Row | % Dye in Water Layer (Aqueous Partition Value) | SMILES
1 | 78% | CC[N+](CC)(CC)CCOCCOCCN(CCOCC[N+](CC)(CC)CC)c1cc(OC)c(/N=N/c2sc(C#N)c(C)c2C#N)cc1OC [Example 19]
2 | 75% | COc1cc(/N=N/c2sc(C#N)c(C)c2C#N)c(C)cc1N(CCOCCOCC[N+](C)(C)CCO)CCOCC[N+](C)(C)CCO [Example 21]
3 | 56% | COc1cc(/N=N/c2sc(C#N)c(C)c2C#N)c(C)cc1N(CCOCCOCC[N+](CCO)(CCO)CCO)CCOCC[N+](CCO)(CCO)CCO [Example 22]
4 | 66% | CC[N+](CC)(CC)CCOCCOCCN(CCOCC[N+](CC)(CC)CC)c1ccc(/N=N/c2sc(C#N)c(C)c2C#N)c(C)c1 [Example 35]
5 | 94% | CC[N+](CC)(CC)CCN(CC[N+](CC)(CC)CC)c1ccc(/N=N/c2sc(C#N)c(C)c2C#N)c(C)c1 [Example 36]

The next lines start with the molecule.

Row | SMILES | % Dye in Water Layer (Aqueous Partition Value)
6 | COc1cc(/N=N/c2sc(C#N)c(C)c2C#N)c(C)cc1N(CCn1cc[n+](C)c1)CCn1cc[n+](C)c1 [Example 1] | 97%
7 | Cc1cc(N(CCn2cc[n+](C)c2)CCn2cc[n+](C)c2)ccc1/N=N/c1sc(C#N)c(C)c1C#N [Example 2] | 83%
8 | CCN(CC[N+](CC)(CC)CC)c1ccc(/N=N/c2sc(C#N)c(C)c2C#N)c(C)c1 [Example 7] | 15%
9 | CCN(CCOCCOCCOCCOCC[N+](CC)(CC)CC)c1ccc(/N=N/c2sc(C#N)c(C)c2C#N)c(C)c1 [Example 12] | 15%
10 | CCN(CCOCCOCCOCCOCCn1cc[n+](C)c1)c1ccc(/N=N/c2sc(C#N)c(C)c2C#N)c(C)c1 [Example 13] | 20%
11 | CC[N+](CC)(CC)CCOCCOCCN(CCOCC[N+](CC)(CC)CC)c1cc(C)c(/N=N/c2sc(C#N)c(C)c2C#N)cc1OC [Example 18] | 49%
